Entries after “also recorded” stand apart in the source; their conditions may differ. Residues, ends and D or L forms follow the SMILES beside them. *: point of attachment. Cbz = O=C(OCc1ccccc1)*; CH2F = FC*
T1: drICE (Drosophila melanogaster, UniProt O01382)
T1 sequence (O01382 29-217 limits assumed): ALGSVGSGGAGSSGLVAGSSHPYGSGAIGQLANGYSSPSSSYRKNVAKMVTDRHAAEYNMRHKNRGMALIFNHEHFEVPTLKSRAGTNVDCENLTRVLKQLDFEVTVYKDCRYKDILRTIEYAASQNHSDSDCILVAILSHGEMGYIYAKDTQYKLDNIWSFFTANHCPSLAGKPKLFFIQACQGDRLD
T1 sequence (O01382 231-339 limits assumed): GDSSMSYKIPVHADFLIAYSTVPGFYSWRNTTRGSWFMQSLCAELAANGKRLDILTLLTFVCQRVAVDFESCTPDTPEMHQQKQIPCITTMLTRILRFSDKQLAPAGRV


Experiments:
drICE = target: T1, drICE; conditions: cited from earlier work
Drosophila S2 cells = conditions: cited from earlier work
[1] = test system: spermatid individualization in cultured testes; test: Testes cultures with caspase inhibitor (spermatid individualization); assay type: cell-based, Drosophila; conditions: isolated testes cultured 24-26 hours at 25° C. with 30 mm Z-VAD(OMe)-FMK
Experimental: At least 20 testes were examined for each experiment described. Testes of young adults were dissected in testis buffer (TB) which consisted of: 10 mM Tris-HCl, pH 6.8, 183 mM KCl, 47 mM NaCl, 1 mM EDTA, and 1 mM PMSF. Dissected testes were transferred to a […] droplet of TB placed on a siliconized coverslip (GOLD SEAL), opened using thin forceps, and sandwiched with a poly-L-lysine-coated slide. The sandwich was frozen in liquid nitrogen, the coverslip was removed with a razor blade, and the slide was placed in ice-cold absolute ethanol. The slides were drained and a hydrophobic ring surrounding the opaque tissue was drawn using a PAP PEN (Zymed Laboratories Inc.). The tissue was fixed in 4% formaldehyde in PBS for 20 minutes, rinsed twice with PBS for 5 minutes, incubated in PBT (PBS+0.1% Triton X-100) for 30 minutes, and rinsed twice again. The fixed testes were then blocked with PBS/BSA (1% BSA in PBS) for 45 minutes, incubated with primary antibody (diluted in PBS/BSA) within the hydrophobic ring overnight at […] inside a humid chamber, and rinsed twice for 5 minutes in PBS. […] Caspase inhibition of IC caudal movement was determined in vitro, using isolated pairs of testes from young adult flies (n=10). […]

[2] = test system: spermatid individualization and male fertility; test: Expression of p35 in male gonads (Hsp83-gal4 x UAS-p35): fertility test and cytological analysis; assay type: in vivo, Drosophila
[3] = ectopic expression of p35 in male germ cells

Row | Molecule | activity of drICE in vitro (drICE) | drICE-induced cell death (Drosophila S2 cells) | IC (individualization complex) translocation ([1]; versus DMSO control) | cystic bulge (CB) morphology / collection of cytoplasm into CBs ([1]; versus DMSO control testis of same individual) | CM1-staining (active drICE) [2, 3] | spermatid individualization / CB and WB morphology in vivo [2, 3] | IC translocation in vivo ([2]; male progeny with Hsp83-gal4 driver and UAS-p35 construct) | male fertility ([2]; male progeny with Hsp83-gal4 driver and UAS-p35 construct, parental lines fertile)
1 | COC(=O)C[C@H](NC(=O)[C@H](C)NC(=O)[C@@H](NC(=O)OCc1ccccc1)C(C)C)C(=O)CF [Z-VAD, Z-VAD(OMe)-FMK] (Cbz-Val-Ala-Asp(OMe)-CH2F) | blocks the activity of drICE in vitro | blocks | no evidence of IC translocation | advanced CBs that appeared flat; also recorded: flat, irregular CBs |  |  |  | 
2 | p35: baculoviral broad-spectrum caspase inhibitor p35, expressed in male gonads via the GAL4/UAS system (protein, UniProt P08160 1-299, looked up) Early 35 kDa protein: MCVIFPVEIDVSQTIIRDCQVDKQTRELVYINKIMNTQLTKPVLMMFNISGPIRSVTRKNNNLRDRIKSKVDEQFDQLERDYSDQMDGFHDSIKYFKDEHYSVSCQNGSVLKSKFAKILKSHDYTDKKSIEAYEKYCLPKLVDERNDYYVAVCVLKPGFENGSNQVLSFEYNPIGNKVIVPFAHEINDTGLYEYDVVAYVDSVQFDGEQFEEFVQSLILPSSFKNSEKVLYYNEASKNKSMIYKALEFTTESSWGKSEKYNWKIFCNGFIYDKKSKVLYVKLHNVTSALNKNVILNTIK |  |  |  |  | failing to block CM1-staining | the cytoplasm failed to collect to form a normal CB; also recorded: blocked individualization; also recorded: scattered IC cones and flat CBs and WBs | IC translocation was severely impaired | sterile

From patent publication US20050120397A1, “Compounds and methods for regulation of spermatid differentiation” (priority 2003, published 2005)
